Laboratory results reported in PubChem BioAssay AID2060502 (Molecular Pharmacology Branch, DTP, NCI, 2025).

Tested on: 885724-159-R-J1-PDC complex spheroid viability
Assay: Anticancer human tumor 885724-159-R-J1-PDC patient-derived pancreatic adenocarcinoma cell line growth inhibition [GQUAD]
Conditions: for IC50: curve of first compound; for viability, T/C: stronger effect = lower value
In short: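 Tumor cells were grown as complex spheroids with HUVEC endothelial cells and mesenchymal stem cells as stroma. G-quadruplex stabilizers were combined with targeted agents over half-log dilutions from near the clinical Cmax, or from 10 microM.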

[1] = second compound 0.0316 µM, first compound 0.0316 µM
[2] = second compound 0.0316 µM, first compound 0.1 µM
[3] = second compound 0.0316 µM, first compound 0.316 µM
[4] = second compound 0.0316 µM, first compound 1 µM
[5] = second compound 0.0316 µM, first compound 3.16 µM
[6] = second compound 0.0316 µM, first compound 10 µM
[7] = second compound 0.1 µM, first compound 0.0316 µM
[8] = second compound 0.1 µM, first compound 0.1 µM
[9] = second compound 0.1 µM, first compound 0.316 µM
[10] = second compound 0.1 µM, first compound 1 µM
[11] = second compound 0.1 µM, first compound 3.16 µM
[12] = second compound 0.1 µM, first compound 10 µM
[13] = second compound 0.316 µM, first compound 0.0316 µM
[14] = second compound 0.316 µM, first compound 0.1 µM
[15] = second compound 0.316 µM, first compound 0.316 µM
[16] = second compound 0.316 µM, first compound 1 µM
[17] = second compound 0.316 µM, first compound 3.16 µM
[18] = second compound 0.316 µM, first compound 10 µM
[19] = second compound 1 µM, first compound 0.0316 µM
[20] = second compound 1 µM, first compound 0.1 µM
[21] = second compound 1 µM, first compound 0.316 µM
[22] = second compound 1 µM, first compound 1 µM
[23] = second compound 1 µM, first compound 3.16 µM
[24] = second compound 1 µM, first compound 10 µM
[25] = second compound 3.16 µM, first compound 0.0316 µM
[26] = second compound 3.16 µM, first compound 0.1 µM
[27] = second compound 3.16 µM, first compound 0.316 µM
[28] = second compound 3.16 µM, first compound 1 µM
[29] = second compound 3.16 µM, first compound 3.16 µM
[30] = second compound 3.16 µM, first compound 10 µM
[31] = second compound 10 µM, first compound 0.0316 µM
[32] = second compound 10 µM, first compound 0.1 µM
[33] = second compound 10 µM, first compound 0.316 µM
[34] = second compound 10 µM, first compound 1 µM
[35] = second compound 10 µM, first compound 3.16 µM
[36] = second compound 10 µM, first compound 10 µM
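Note: spheroids exposed to agents for seven days before readout.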
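Throughout, for viability, T/C: percent of vehicle control viability where 100% = DMSO wells.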

What does the source list for `CC(C)(O)C1CCC(Nc2ccc3ncc(-c4cccc(C(F)(F)F)c4)n3n2)CC1` (stereo unspecified) + Cc1cnc(CNC(=O)c2c(=O)c3ccc(N4CCCN(C)CC4)nc3n3c2sc2ccccc23)cn1?
IC50 (second compound 0.0316 µM): 3.14 µM; IC50 (second compound 0.1 µM): 4.18 µM; IC50 (second compound 0.316 µM): 3.88 µM; IC50 (second compound 1 µM): 2.61 µM; IC50 (second compound 3.16 µM): 1.19 µM; IC50 (second compound 10 µM): 1.04 µM; viability, T/C [1]: 112%; viability, T/C [2]: 86.4%; viability, T/C [3]: 93.2%; viability, T/C [4]: 70.3%; viability, T/C [5]: 44.2%; viability, T/C [6]: 40.6%; viability, T/C [7]: 108%; viability, T/C [8]: 103%; viability, T/C [9]: 91.2%; viability, T/C [10]: 79.1%; viability, T/C [11]: 45.5%; viability, T/C [12]: 48.1%; viability, T/C [13]: 94%; viability, T/C [14]: 89.9%; viability, T/C [15]: 79.4%; viability, T/C [16]: 71.1%; viability, T/C [17]: 50.4%; viability, T/C [18]: 39.9%; viability, T/C [19]: 88.5%; viability, T/C [20]: 73.2%; viability, T/C [21]: 77.2%; viability, T/C [22]: 67%; viability, T/C [23]: 45.2%; viability, T/C [24]: 36.7%; viability, T/C [25]: 73.8%; viability, T/C [26]: 65.6%; viability, T/C [27]: 64.9%; viability, T/C [28]: 55%; viability, T/C [29]: 28.4%; viability, T/C [30]: 11.7%; viability, T/C [31]: 62%; viability, T/C [32]: 69.4%; viability, T/C [33]: 62.5%; viability, T/C [34]: 51.8%; viability, T/C [35]: 9.65%; viability, T/C [36]: 0.29%

Which IC50 (second compound 0.0316 µM) does the source give for `O=c1[nH]cc(F)c(=O)[nH]1` + CN(C)c1ccc(Nc2c3ccc(NC(=O)CCN4CCCC4)cc3nc3cc(NC(=O)CCN4CCCC4)ccc23)cc1 here?
Its IC50 is > 10 µM.

And the IC50 (second compound 0.1 µM)?
The IC50 was > 10 µM.

And the IC50 (second compound 0.316 µM)?
The IC50 was > 10 µM.

What about the IC50 (second compound 1 µM) of the same compound?
The IC50 was > 10 µM.

And the IC50 (second compound 3.16 µM)?
Its IC50 is > 10 µM.

What about the IC50 (second compound 10 µM) of the same compound?
The IC50 was > 10 µM.

What about the viability, T/C [1] of the same compound?
Its viability, T/C is 105%.

And the viability, T/C [2]?
The viability, T/C was 103%.

And the viability, T/C [3]?
The viability, T/C was 98.7%.

What about the viability, T/C [4] of the same compound?
The viability, T/C was 100%.

And the viability, T/C [5]?
The viability, T/C was 78%.

What about the viability, T/C [6] of the same compound?
Its viability, T/C is 85.8%.

And the viability, T/C [7]?
Its viability, T/C is 90.8%.

What about the viability, T/C [8] of the same compound?
The viability, T/C was 103%.

What about the viability, T/C [9] of the same compound?
Its viability, T/C is 101%.

And the viability, T/C [10]?
Its viability, T/C is 95.8%.

What about the viability, T/C [11] of the same compound?
Its viability, T/C is 86.4%.

And the viability, T/C [12]?
Its viability, T/C is 97.2%.

And the viability, T/C [13]?
The viability, T/C was 89%.

And the viability, T/C [14]?
The viability, T/C was 88.1%.

What about the viability, T/C [15] of the same compound?
Its viability, T/C is 87.7%.

What about the viability, T/C [16] of the same compound?
Its viability, T/C is 79.7%.

And the viability, T/C [17]?
Its viability, T/C is 86.5%.

And the viability, T/C [18]?
Its viability, T/C is 78.5%.

What about the viability, T/C [19] of the same compound?
The viability, T/C was 91.7%.

What about the viability, T/C [20] of the same compound?
Its viability, T/C is 69.9%.

What about the viability, T/C [21] of the same compound?
Its viability, T/C is 80.5%.

What about the viability, T/C [22] of the same compound?
Its viability, T/C is 73.3%.

What about the viability, T/C [23] of the same compound?
Its viability, T/C is 76.3%.

What about the viability, T/C [24] of the same compound?
The viability, T/C was 83.2%.

And the viability, T/C [25]?
The viability, T/C was 82.7%.

What about the viability, T/C [26] of the same compound?
Its viability, T/C is 83.5%.

What about the viability, T/C [27] of the same compound?
Its viability, T/C is 87.8%.

And the viability, T/C [28]?
The viability, T/C was 80.6%.

And the viability, T/C [29]?
Its viability, T/C is 71.4%.

What about the viability, T/C [30] of the same compound?
The viability, T/C was 75.5%.

What about the viability, T/C [31] of the same compound?
Its viability, T/C is 76%.

What about the viability, T/C [32] of the same compound?
The viability, T/C was 80%.

And the viability, T/C [33]?
The viability, T/C was 80.6%.

What about the viability, T/C [34] of the same compound?
Its viability, T/C is 79%.

And the viability, T/C [35]?
The viability, T/C was 87.8%.

And the viability, T/C [36]?
Its viability, T/C is 75%.

Which results are given for `O=c1[nH]cc(F)c(=O)[nH]1` + Cc1[nH]c2ccc(F)cc2c1-c1nc2c3cccnc3c3ncccc3c2[nH]1?
IC50 (second compound 0.0316 µM): > 10 µM; IC50 (second compound 0.1 µM): > 10 µM; IC50 (second compound 0.316 µM): > 10 µM; IC50 (second compound 1 µM): > 10 µM; IC50 (second compound 3.16 µM): < 0.0316 µM; IC50 (second compound 10 µM): > 10 µM; viability, T/C [1]: 101%; viability, T/C [2]: 103%; viability, T/C [3]: 98.5%; viability, T/C [4]: 95.9%; viability, T/C [5]: 97.1%; viability, T/C [6]: 86%; viability, T/C [7]: 103%; viability, T/C [8]: 89.3%; viability, T/C [9]: 91%; viability, T/C [10]: 93.5%; viability, T/C [11]: 93.7%; viability, T/C [12]: 86.3%; viability, T/C [13]: 107%; viability, T/C [14]: 94.7%; viability, T/C [15]: 81.6%; viability, T/C [16]: 82%; viability, T/C [17]: 97.5%; viability, T/C [18]: 95.6%; viability, T/C [19]: 76.4%; viability, T/C [20]: 74.7%; viability, T/C [21]: 75%; viability, T/C [22]: 70.7%; viability, T/C [23]: 68.3%; viability, T/C [24]: 69.9%; viability, T/C [25]: 39.2%; viability, T/C [26]: 42.6%; viability, T/C [27]: 41.3%; viability, T/C [28]: 41.6%; viability, T/C [29]: 45.1%; viability, T/C [30]: 42.3%; viability, T/C [31]: 66.1%; viability, T/C [32]: 77.2%; viability, T/C [33]: 70.3%; viability, T/C [34]: 71.3%; viability, T/C [35]: 81.3%; viability, T/C [36]: 62.9%
